From US6716828B1, “Compounds, methods and pharmaceutical compositions for treating cellular damage, such as neural or cardiovascular tissue damage” (Guilford Pharmaceuticals, Inc., priority 1999, dated 2004)

Columns and labels:
[1] = tested on: male Long-Evans rats; experiment: Focal cerebral ischemia (right distal MCA cauterization with bilateral temporary CCA occlusion); type: in vivo; settings: for damaged volume (infarct volume): mean±SD
Experimental: Focal cerebral ischemia is produced by cauterization of the right distal MCA (middle cerebral artery) with bilateral temporary common carotid artery occlusion in male Long-Evans rats for 90 minutes. All procedures performed on the animals are approved by the University Institutional Animal Care and Use Committee of the University of Pennsylvania. A total of 42 rats (weights: 230-340 g) obtained from Charles River were used in this study. The animals fasted overnight with free access to water prior to the surgical procedure.
Two hours prior to MCA occlusion, varying amounts (control, n=14; 5 mg/kg, n=7; 10 mg/kg, n=7; 20 mg/kg, n=7; and 40 mg/kg, n=7) of the compound, 3,4-dihydro-5-[4-(1-piperidinyl)-butoxy]-1(2H)-isoquinolinone (“DPQ”) were dissolved in dimethyl sulfoxide (DMSO) using a sonicator. A volume of 1.28 ml/kg of the resulting solution was injected intraperiotoneally into fourteen rats.
The rats were then anesthetized with halothane (4% for induction and 0.8%-[…] for the surgical procedure) in a mixture of 70% nitrous oxide and 30% oxygen. The body temperature was monitored by a rectal probe and maintained at 37.5±0.5° C. with a heating blanket regulated by a homethermic blanket control unit (Harvard Apparatus Limited, Kent, U.K.). A catheter (PE-50) was placed into the tail artery, and arterial pressure was continuously monitored and recorded on a Grass polygraph recorder (Model 7D, Grass Instruments, Quincy, Mass.). Samples for blood gas analysis (arterial pH, PaO2 and PaCO2) were also taken from the tail artery catheter and measured with a blood gas analyzer (ABL 30, Radiometer, Copenhagen, Denmark). Arterial blood samples were obtained 30 minutes after MCA occlusion.
The head of the animal was positioned in a stereotaxic frame, and a right parietal incision between the right lateral canthus and the external auditory meatus was made. Using a dental drill constantly cooled with saline, a 3 mm burr hole was prepared over the cortex supplied by the right MCA. 4 mm lateral to the sagittal suture and 5 mm caudal to the coronal suture. The dura mater and a thin inner bone layer were kept, care being taken to position the probe over a tissue area devoid of large blood vessels. The flow probe (tip diameter of 1 mm, fiber separation of 0.25 mm) was lowered to the bottom of the cranial burr hole using a micromanipulator. The probe was held stationary by a probe holder secured to the skull with dental cement. The microvascular blood flow in the right parietal cortex was continuously monitored with a laser Doppler flowmeter (FloLab, Moor, Devon, U.K., and Periflux 4001, Perimed, Stockholm, Sweden).
Focal cerebral ischemia was produced by cauterization of the distal portion of the right MCA with bilateral temporary common caroud artery (CCA) occlusion by the procedure of Chen et al., “A Model of Focal Ischemic Stroke in the Rat: Reproducible Extensive Cortical Infarction”, Stroke 17:738-43 (1986) and/or Liu et al., “Polyethylene Glycol-conjugated Superoxide Dismutase and Catalase Reduce Ischemic Brain Injury”, Am. J. Physiol. 256:H589-93 (1989), both of which are hereby incorporated by reference.
Specifically, bilateral CCA's were isolated, and loops made from polyethylene (PE-10) catheter were carefully passed around the CCA's for later remote occlusion. […]

[2] = biological target: PARP (Homo sapiens, UniProt P09874); settings: read-out: IC50 for inhibiting PARP; reported by Suto et al.; cited from earlier work
Chain of PARP (P09874 whole entry): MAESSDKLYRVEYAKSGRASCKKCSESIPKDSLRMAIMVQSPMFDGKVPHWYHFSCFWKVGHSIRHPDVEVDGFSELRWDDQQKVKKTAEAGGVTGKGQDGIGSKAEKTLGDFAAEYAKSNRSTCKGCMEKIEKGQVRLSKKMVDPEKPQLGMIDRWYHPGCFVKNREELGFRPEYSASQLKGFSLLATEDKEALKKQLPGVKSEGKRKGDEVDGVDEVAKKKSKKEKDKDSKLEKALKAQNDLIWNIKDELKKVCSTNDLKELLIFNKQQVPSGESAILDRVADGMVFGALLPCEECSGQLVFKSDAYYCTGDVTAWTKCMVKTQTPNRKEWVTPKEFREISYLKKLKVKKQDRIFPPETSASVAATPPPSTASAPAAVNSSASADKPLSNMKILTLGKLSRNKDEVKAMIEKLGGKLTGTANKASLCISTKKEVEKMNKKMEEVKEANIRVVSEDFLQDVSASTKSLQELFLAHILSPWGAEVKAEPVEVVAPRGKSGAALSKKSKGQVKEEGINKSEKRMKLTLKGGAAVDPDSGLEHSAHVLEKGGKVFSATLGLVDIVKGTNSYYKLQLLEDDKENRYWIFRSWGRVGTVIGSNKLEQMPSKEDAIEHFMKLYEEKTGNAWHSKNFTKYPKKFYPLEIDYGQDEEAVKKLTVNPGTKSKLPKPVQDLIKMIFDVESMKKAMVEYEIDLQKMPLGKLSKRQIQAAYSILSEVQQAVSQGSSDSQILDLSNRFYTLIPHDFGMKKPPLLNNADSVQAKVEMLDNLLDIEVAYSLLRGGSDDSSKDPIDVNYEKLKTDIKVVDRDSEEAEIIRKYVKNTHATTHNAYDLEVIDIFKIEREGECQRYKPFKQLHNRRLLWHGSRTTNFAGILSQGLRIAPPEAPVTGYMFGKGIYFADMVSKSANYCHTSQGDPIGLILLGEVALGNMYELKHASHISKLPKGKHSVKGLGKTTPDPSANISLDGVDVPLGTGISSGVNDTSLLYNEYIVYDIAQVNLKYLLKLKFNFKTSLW

With O=C1NCCc2c(OCCCCN3CCCCC3)cccc21 [DPQ, 3,4-dihydro-5-[4-(1-piperidinyl)-butoxy]-1(2H)-isoquinolinone] the “damaged volume (infarct volume)” value ([1]; 5 mg/kg i.p. 2 h before and 2 h after MCA occlusion, p<0.001 vs control) was 106.7±23.2 mm^3, the “damaged volume (infarct volume)” value ([1]; 10 mg/kg i.p. 2 h before and 2 h after MCA occlusion, p<0.001 vs control) was 76.4±16.8 mm^3 and the “damaged volume (infarct volume)” value ([1]; 20 mg/kg i.p. 2 h before and 2 h after MCA occlusion, p<0.01 vs control) was 110.2±42.0 mm^3. The “damaged volume (infarct volume)” value ([1]; 40 mg/kg i.p. 2 h before and 2 h after MCA occlusion, not significant vs control) was 135.6±44.8 mm^3, the “infarct volume, overall effect of in vivo administration” value ([1]; focal cerebral ischemia model in the rat) was “substantial reduction in infarct volume” and the IC50 [2] was 10 nM.
